According to publication PMC10708454, “Mentha spp. Essential Oils: A Potential Toxic Fumigant with Inhibition of Acetylcholinesterase Activity on Reticulitermes dabieshanensis” (Plants, 2023):

Molecular target: T1, acetylcholinesterase (AChE)
T1 construct: gene ace-1; native enzyme in crude whole-worker homogenate (Triton X-100 supernatant), not purified; the docking model is of Coptotermes formosanus, not this enzyme
Test: Ellman assay, crude termite homogenate
Assay type: biochemical, Reticulitermes dabieshanensis
Conditions: acetylthiocholine iodide (10 mM stock), DTNB, Tris-HCl pH 7.8, 30 min, inhibitor in alcohol

SMILES	IC50 ^a (95% CI ^b) (0.5-6.0 μL/mL)	IC50 ^a (95% CI ^b) (1.0-20.0 μL/mL (value outside tested range))
C=C(C)C1CC=C(C)C(=O)C1 (stereo not drawn) [carvone]	1.922 (1.131–3.308) μL/mL	–
C=CC(C)(O)CCC=C(C)C (stereo not drawn) [linalool]	0.136 (0.066–0.218) μL/mL	–
CC(C)[C@@H]1CC[C@@H](C)C[C@H]1O [menthol]	–	76.790 (36.58–166.367) μL/mL
